Consider 16 molecules from BindingDB's records for doi:10.1016/j.bmc.2018.06.029 (East China University of Science & Technology, 2018).

The experiment has as its target Tyrosine-protein kinase SYK (Homo sapiens) (UniProt P43405). Nature of the experiment: Inhibition of SYK (unknown origin) using FAM-labeled peptide as substrate preincubated for 10 mins followed by substrate addition measured after 25 mins.

In turn, `COc1cc(Nc2nc(N3CCC(NC(=O)c4ccc(C(=O)O)cn4)C3)nc3c2COC3)cc(OC)c1OC` (stereo unspecified) had an IC50 of 14.2 µM.
The result for `COCCCNc1nc(N2CCC(NC(=O)c3ccc(C(=O)O)cn3)C2)nc2c1COC2` (stereo unspecified) reads more than 50 µM; that for `CCc1ccc(Nc2nc(N3CCC(NC(=O)c4ccc(C(=O)O)cn4)C3)nc3c2COC3)cc1` (stereo unspecified), 19.2 µM; that for `COc1ccc(Nc2nc(N3CCC(NC(=O)c4ccc(C(=O)O)cn4)C3)nc3c2COC3)cc1` (stereo unspecified), 32.1 µM.
With `CCOCCCNc1nc(N2CCC(NC(=O)c3ccc(C(=O)O)cn3)C2)nc2c1COC2` (stereo unspecified), the IC50 was more than 50 µM.
The result for `COc1ccc(Nc2nc(N3CCC(NC(=O)c4ccc(C(=O)O)cn4)C3)nc3c2COC3)cc1OC` (stereo unspecified) reads 23.7 µM; that for `Cc1ccc(Nc2nc(N3CCC(NC(=O)c4ccc(C(=O)O)cn4)C3)nc3c2COC3)cc1` (stereo unspecified), 20.9 µM; that for `O=C(O)c1ccc(C(=O)NC2CCN(c3nc4c(c(NC5CCCCC5)n3)COC4)C2)nc1` (stereo unspecified), 13.5 µM.
The same measure for `COC(=O)c1ccc(C(=O)NC2CCN(c3nc4c(c(Nc5ccc(OC)c(OC)c5)n3)CCC4)C2)cc1` (stereo unspecified): more than 50 µM; for `CCCCCNc1nc(N2CCC(NC(=O)c3ccc(C(=O)O)cn3)C2)nc2c1COC2` (stereo unspecified): more than 50 µM.
Molecule `O=C(O)c1ccc(C(=O)NC2CCN(c3nc4c(c(Nc5ccc6c(c5)OCCO6)n3)COC4)C2)nc1` (stereo unspecified) returned an IC50 of 20.3 µM.
The result for `Cc1ccc(Nc2nc(N3CCC(NC(=O)c4ccc(C(=O)O)cn4)C3)nc3c2COC3)cc1C` (stereo unspecified) reads 15.6 µM.
The same measure for `CCCCCCNc1nc(N2CCC(NC(=O)c3ccc(C(=O)O)cn3)C2)nc2c1COC2` (stereo unspecified): 9.7 µM.
The result for `COc1ccc(Nc2nc(N3CCC(NC(=O)c4ccc(C(=O)O)cc4)C3)nc3c2CCC3)cc1OC` (stereo unspecified) reads 25.3 µM; that for `COc1cc(Nc2nc(N3CCC(NC(=O)c4ccc(C(=O)O)cn4)C3)nc3c2COC3)cc(OC)c1` (stereo unspecified), 20.9 µM.
For the molecule `CCCCCCCNc1nc(N2CCC(NC(=O)c3ccc(C(=O)O)cn3)C2)nc2c1COC2` (stereo unspecified), the IC50 is 11.4 µM.

A word on the IC50: it is the point on the concentration scale where inhibition reaches its midpoint. Higher therefore signals a need for much substance.
